Measurements: US20030207813A1, “Retroviral protease inhibitor combinations” (priority 1995, published 2003)
Where two headings read alike, the source gives them in different places.

What was measured:
HIV-1NL4-3 = assay: microbe, parasite or virus in culture; assay type: cell-based; conditions: for EC50: Table 8, read-out: Virus Isolate (EC50 nM) NL4
Text: (§1) RF represents the HIV-1 strain HIV-LRF and RFR represents a mixture of resistant strains obtained by selection of RF against the compound of Example 1. […] RFR2 represents a mixture of resistant strains obtained by cloning RFR by three rounds of growth at limiting dilution. […] RFRR represents a mixture of resistant strains obtained by selection of RF against the compounds of Examples 1 and 2 and then cloning by three rounds of growth at limiting dilution. […] SF162 represents the HIV-1 strain SF-162 and SF162R represents a mixture of resistant strains obtained by selection of SF162 against the compound of Example 1. […] 89-959 represents the HIV-1 strain 89-959 and 89-959R represents a mixture of resistant strains obtained by selection of 89-959 against the compound of Example 2. […] NL4 represents the HIV-1 strain HIV-1NL4-3. NL4(G48V) represents a strain having a synthetically generated site-directed mutation in the protease from glycine to valine at amino acid position number 48. NL4(I84V) represents a strain having a synthetically generated site-directed mutation in the protease from isoleucine to valine at amino acid position number 84. NL4(R8Q,M46I) represents a strain having synthetically generated site-directed mutations in the protease from arginine to glutamine at amino acid position number 8 and methionine to isoleucine at amino acid position number 46.

NL4(P37-538) = assay: Viral isolate resistance assay per Markowitz et al., NL4(P37-538); assay type: cell-based, HIV-1; conditions: Human immunodeficiency virus 1; Table 9; selected against Example 10, 37 passages; read-out: Virus Isolate (EC50 nM) NL4(P37-538)
Text: RF represents the HIV-1 strain HIV-LRF and RFR represents a mixture of resistant strains obtained by selection of RF against the compound of Example 1. RFR comprises a mixture of viral strains having protease genotypes of G48V (14/40 clones); G48V, V82A (18/40 clones); G48V, L90S (2/40 clones); G48V, 154T, V82A (1/40 clones); G48M (1/40 clones); G48V, Q61H (1/40 clones); V13I, G48V (1/40 clones); G48V, F53L, V82A (1/40 clones); and G48V, V82A, C95Y (1/40 clones). RFR2 represents a mixture of resistant strains obtained by cloning RFR by three rounds of growth at limiting dilution. RFR2 comprises a mixture of viral strains having protease genotypes of G48V, V82A (13/15 clones); G17E, G48V, V82A (1/15 clones); and G48V, V82A, N37D, N88D (1/15 clones). RFRR represents a mixture of resistant strains obtained by selection of RF against the compounds of Examples 1 and 2 and then cloning by three rounds of growth at limiting dilution. RFRR comprises a mixture of viral strains having protease genotypes of G48V, 154T, L63P, V82A (7/9 clones); G48V, 154T, L63P, V82A, N88S (1/9 clones); and G48V, 154T, L63P, G73M, V82A (1/9 clones). SF162 represents the HIV-1 strain SF-162 and SF162R represents a mixture of resistant strains obtained by selection of SF162 against the compound of Example 1. SF162R comprises a mixture of viral strains having protease genotypes of M461, F53L, L63P, A71V, N88D (2/3 clones); and M46I, F53L, L63P, A71V, N88D, Q92R (1/3 clones). 89-959 represents the HIV-1 strain 89-959 and 89-959R represents a mixture of resistant strains obtained by selection of 89-959 against the compound of Example 2. 89-959R comprises a mixture of viral strains having protease genotypes of N88S (4/5 clones); and D25N, T26A, D30N, D37N, R41K, G73D, R87K, N88S (1/4 clones). NL4 represents the HIV-1 strain HIV-1NL4-3. NL4(G48V) represents a strain having a synthetically generated site-directed mutation in the protease from glycine to valine at amino acid position number 48. NL4(I84V) represents a strain having a synthetically generated site-directed mutation in the protease from isoleucine to valine at amino acid position number 84. NL4(R8Q,M46I) represents a strain having synthetically generated site-directed mutations in the protease from arginine to glutamine at amino acid position number 8 and methionine to isoleucine at amino acid position number 46. NL4(P22-538) represents a mixture of resistant strains obtained by selection of HIV-1NL4-3 against the compound of Example 10 after 22 passages comprising protease genotypes M46I, L63P, A71V, V82F, I84V (4/10); M46I, L63P, V82F, I84V (3/10); and M46I, A71V, V82F, I84V (3/10). NL4(P37-538) represents resistant strains obtained by selection of HIV-1NL4-3 against the compound of Example 10 after 37 passages comprising protease genotype M46I, L63P, A71V, 184A. NL4(538/524) represents resistant strains obtained by selection of NL4(P22-538) against the compound of Example 5 after 24 passages comprising protease genotype M46I, L63P, A71V, 184A. NL4(538/P7-AG) represents a mixture of resistant strains obtained by selection of NL4(P22-538) against the compound of Example 12 after 7 passages comprising protease genotypes M46I, L63P, A71V, 184A; and V321, V82I. NL4(538/P24-AG) represents resistant strains obtained by selection of NL4(P22-538) against the compound of Example 12 after 24 passages comprising protease genotype M46I, L63P, A71V, 184A. NLA(P19-003) represents resistant strains obtained by selection of HIV-1^NL4-3 against the compound of Example 9 after 19 passages comprising protease genotype R8K, M46I. NL4(P34-003) represents resistant strains obtained by selection of HIV-1^NL4-3 against the compound of Example 9 after 34 passages comprising protease genotype R8K, M46I, L63P, A71V, L90M.
The viral isolate resistance results summarized in Tables 7-11 were generated according to the assay procedures described by Markowitz et al., Journal of Virology, vol. […]

NL4(I84V) = assay: Viral isolate resistance assay per Markowitz et al., NL4(I84V); assay type: cell-based, HIV-1; conditions: Human immunodeficiency virus 1, Table 7
Text: as §1

NL4(G48V) = assay: Viral isolate resistance assay per Markowitz et al., NL4(G48V); assay type: cell-based, HIV-1; conditions: Human immunodeficiency virus 1, Table 7
Text: as §1

NL4(R8Q,M46I) = assay: Viral isolate resistance assay per Markowitz et al., NL4(R8Q,M46I); assay type: cell-based, HIV-1; conditions: Human immunodeficiency virus 1, read-out: Virus Isolate (EC50 nM) NL4(R8O, M46I)
Text: (§2) RF represents the HIV-1 strain HIV-LRF and RFR represents a mixture of resistant strains obtained by selection of RF against the compound of Example 1. RFR comprises a mixture of viral strains having protease genotypes of G48V (14/40 clones); G48V, V82A (18/40 clones); G48V, L90S (2/40 clones); G48V, 154T, V82A (1/40 clones); G48M (1/40 clones); G48V, Q61H (1/40 clones); V13I, G48V (1/40 clones); G48V, F53L, V82A (1/40 clones); and G48V, V82A, C95Y (1/40 clones). RFR2 represents a mixture of resistant strains obtained by cloning RFR by three rounds of growth at limiting dilution. RFR2 comprises a mixture of viral strains having protease genotypes of G48V, V82A (13/15 clones); G17E, G48V, V82A (1/15 clones); and G48V, V82A, N37D, N88D (1/15 clones). RFRR represents a mixture of resistant strains obtained by selection of RF against the compounds of Examples 1 and 2 and then cloning by three rounds of growth at limiting dilution. RFRR comprises a mixture of viral strains having protease genotypes of G48V, 154T, L63P, V82A (7/9 clones); G48V, 154T, L63P, V82A, N88S (1/9 clones); and G48V, 154T, L63P, G73M, V82A (1/9 clones). SF162 represents the HIV-1 strain SF-162 and SF162R represents a mixture of resistant strains obtained by selection of SF162 against the compound of Example 1. SF162R comprises a mixture of viral strains having protease genotypes of M461, F53L, L63P, A71V, N88D (2/3 clones); and M46I, F53L, L63P, A71V, N88D, Q92R (1/3 clones). 89-959 represents the HIV-1 strain 89-959 and 89-959R represents a mixture of resistant strains obtained by selection of 89-959 against the compound of Example 2. 89-959R comprises a mixture of viral strains having protease genotypes of N88S (4/5 clones); and D25N, T26A, D30N, D37N, R41K, G73D, R87K, N88S (1/4 clones). NL4 represents the HIV-1 strain HIV-1NL4-3. NL4(G48V) represents a strain having a synthetically generated site-directed mutation in the protease from glycine to valine at amino acid position number 48. […]

NLA(P19-003) = assay: Viral isolate resistance assay per Markowitz et al., NLA(P19-003); assay type: cell-based, HIV-1; conditions: Human immunodeficiency virus 1, read-out: Virus Isolate (EC50 nM) NLA(P19-003)
Text: as §2

[1] = Human immunodeficiency virus 1, NL4

Structure (SMILES)	EC90 (HIV-1NL4-3; Human immunodeficiency virus 1, Table 7, EC90, NL4, read-out: Virus Isolate (EC90 nM) NL4) [nM]	EC50 (HIV-1NL4-3; [1]) [nM]	EC50 (NL4(P37-538)) [nM]	EC90 (NL4(I84V)) [nM]	EC90 (NL4(G48V)) [nM]	EC50 (NL4(R8Q,M46I)) [nM]	EC90 (HIV-1NL4-3; Human immunodeficiency virus 1, read-out: Virus Isolate (EC90 nM) NL4) [nM]	EC50 (NLA(P19-003)) [nM]
CC(C)(C)NC(=O)[C@@H]1CC2CCCC[C@@H]2CN1C[C@@H](O)[C@H](Cc1ccccc1)NC(=O)[C@H](CC(N)=O)NC(=O)c1ccc2ccccc2n1 (stereo in doubt) [Example 6, N-tert-Butyl decahydro-2-[2(R)-hydroxy-4-phenyl-3(S)-[[N-(2-quinolylcarbonyl)-L-asparaginyl]amino]butyl]-(4aR,8aS)-isoquinoline-3(S)-carboxamide]	30	30	2400	90	150	–	–	–
CC(C)(C)NC(=O)[C@@H]1CN(Cc2cccnc2)CCN1C[C@@H](O)C[C@@H](Cc1ccccc1)C(=O)N[C@H]1c2ccccc2C[C@H]1O [Example 5, N-(2(R)-Hydroxy-1(S)-indanyl)-2(R)-phenylmethyl-4(S)-hydroxy-5-(1-(4-(3-pyridylmethyl)-2(S)-N′-(t-butylcarboxamido)-piperazinyl))-pentaneamide]	–	80	6400	640	160	240	80	240
